Test system: BRB breakdown in mice exposed to vascular endothelial growth factor (VEGF)
Assay: BRB breakdown quantitated with intraperitoneal [3H]-mannitol tracer in mice after intravitreal VEGF
Type: in vivo, C57B/J6 mice
Conditions: gavage 50 mg/kg for three days prior to intravitreal VEGF 10^-6 M, [3H]-mannitol tracer at 6 hours
Text: Intraperitoneally administered radiolabeled tracer can be used to quantitate BRB breakdown in mice exposed to vascular endothelial growth factor (VEGF). This technique is particularly advantageous with neonatal mice because of the technical difficulty involved with intravascular injections. Also, the comparison of retinas from injected and control eyes to tissues without a blood-tissue barrier corrects for variations in the amount of isotope injected or absorbed into the circulation.
Ten six- to seven-week-old C57B/J6 mice (Jackson Labs, Bar Harbor, Me.) are weighed to determine the proper dosage of anesthesia and tracer required. Mice are anesthetized with a solution containing 25 mg/kg ketamine (Ketaset; Fort Dodge Animal Health, Fort Dodge, Iowa) and 4 mg/kg rompun (Tranquived; Vedco, St. Joseph, Mo.) diluted 1:10 in saline prior to injection. […]
One ml NCSII (Amersham, Chicago, Ill.) solubilizing solution is added to each vial and the vials are incubated overnight in a 50° C. water bath. […] The specimens are counted on a Wallace 1409 Liquid Scintillation Counter (Gaithersburg, :Md.).
The counts per mg tissue are determined for treated (with 4-pyridylmethyl-phthalazine derivative) and untreated retina, lung, and kidney. Ratios of these values for treated or untreated retina/lung or kidney and for lung/kidney are calculated. […]

Substance: 4-pyridylmethyl-phthalazine
- retina/kidney ratio (VEGF/vehicle-treated 0.6806±0.1060, Student-t value 0.0201): 0.3881±0.0436
- retina/lung ratio (cpm per mg of retina/cpm per mg of lung) (VEGF/vehicle-treated 0.8785±0.0946, Student-t value 0.0467): 0.6326±0.0656

Reference: patent US20050209237A1, “Method for decreasing capillary permeability in the retina” (priority 2002, published 2005)
